The text below walks through data of PMC11173382, “In Vitro Investigations into the Potential Drug Interactions of Pseudoginsenoside DQ Mediated by Cytochrome P450 and Human Drug Transporters” (Molecules, 2024).

Series [1] concerns the target T1, hOCT2 (Homo sapiens, UniProt O15244).
T1 construct: host or cells: S2-OCT2
T1 sequence (O15244 1-555): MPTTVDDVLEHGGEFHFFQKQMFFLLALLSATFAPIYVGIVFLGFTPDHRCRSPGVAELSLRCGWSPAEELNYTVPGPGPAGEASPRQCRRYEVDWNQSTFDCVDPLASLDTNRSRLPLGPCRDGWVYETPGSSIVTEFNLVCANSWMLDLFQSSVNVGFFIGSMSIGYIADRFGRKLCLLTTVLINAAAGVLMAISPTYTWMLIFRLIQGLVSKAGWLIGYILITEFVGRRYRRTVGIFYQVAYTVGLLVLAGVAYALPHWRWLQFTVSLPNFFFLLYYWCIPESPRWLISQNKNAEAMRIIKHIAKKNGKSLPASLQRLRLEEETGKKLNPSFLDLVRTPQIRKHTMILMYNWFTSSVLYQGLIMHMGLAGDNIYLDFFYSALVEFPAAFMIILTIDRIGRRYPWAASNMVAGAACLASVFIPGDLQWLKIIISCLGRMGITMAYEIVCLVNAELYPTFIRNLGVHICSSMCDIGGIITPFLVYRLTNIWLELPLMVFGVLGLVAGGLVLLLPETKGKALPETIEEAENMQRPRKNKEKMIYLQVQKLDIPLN
The series is described as follows: Substrates uptake assay, S2-OCT2 cells (14C-TEA). It is filed as in vitro ADME. As to conditions: inhibitor 600 μM. From the text:
(§1) Drug transporters mediate the cellular uptake and efflux of their substrates. Therefore, cell lines overexpressing a drug transporter can be utilized to investigate inhibitors of the transporter by assessing changes in substrate uptake. For each drug transporter, we selected a well-characterized inhibitor as the positive control. Radiolabeled substrates were used to indicate the decrease in transport efficiency when the drug transporters were inhibited by PDQ or the control inhibitors.
(§2) The concentrations of the control drugs and the substrates were stated in the assay details. Working solutions of the control inhibitors, the radiolabeled substrates, and each dose of PDQ were prepared at 200 times (200×) more concentrated solutions with DMSO for further dilution.
(§3) Transporter-overexpressed cell lines. Human organic anion transporter-overexpressed cell lines MDCKII-OAT1 and S2-OAT3, human organic anion transport polypeptide-overexpressed cell lines HEK293A-OATP1B1 and HEK293A-OATP1B3, human organic cation transporter 2-overexpressed cell line S2-OCT2, and human multi-drug resistance protein MDR1 (or P-gp)-overexpressed cell line MDCKII-MDR1 were gifts from Japan Fuji Biomedical Co., Ltd. (Fuji, Shizuoka Prefecture, Japan). Breast cancer resistance protein-overexpressed vesicles (sf9-BCRP vesicle) were purchased from GenoMembrane Co., Ltd. (Yokohama, Kanagawa, Japan).
(§4) Substrates uptake assay. In this assay, we studied the inhibition of PDQ against transporters OAT1, OAT3, OCT2, OATP1B1 and OATP1B3 with MDCKII-OAT1, S2-OAT3, S2-OCT2, HEK293A-OATP1B1and HEK293A-OATP1B3 cells, respectively. The radiolabeled substrates for OAT1, OAT3, OATP1B1, OATP1B3 and OCT2 were […], respectively (Table 5). Probenecid ([…]) was the positive control inhibitor of OAT1 and OAT3, while rifampicin ([…]) served as the control drug of OATP1B1 and OATP1B3. For OCT2, we used […] cimetidine to compare with the inhibitory effect of PDQ. Two times (2×) more concentrated working solutions of the drugs and the substrate were prepared with Dulbecco’s phosphate-buffered saline (DPBS, Gibco, Grand Island, NY, USA.). Then, an equal volume of 2× drug solution and 2× radiolabeled substrate solution were mixed as the working mix. All reagents were pre-warmed to 37 °C.
(§5) The cells were digested with 0.05% trypsin/EDTA. The density of the single-cell suspension was adjusted to 2.0 × 10^5 cells/mL for S2 cells and to 1.5 × 10^5 cells/mL for MDCK II and HEK293A cells. The cell suspension was then added to the reservoirs of the 24-well plate for culture until full confluency. The medium in the wells was removed, and the wells were washed with DPBS. Then, the plate was incubated for 10 min with pre-warmed DPBS in the wells. After removing DPBS, […] of working mix was added to each well to initiate the substrate uptake process. The reaction time was 5 min for S2-OCT2 cells, while the other four types of cells were incubated with the reaction mix for 2 min. Cold DPBS was used to terminate the substrate transportation. To each well, […] NaOH ([…]) was added to lyse the cells. Then, […] cell lysate was transferred to the counting vials, and 3 mL scintillation cocktail (Aquasol-2, PerkinElmer, Waltham, MA, USA) was added. […] Each sample was replicated three times (N = 3).
(§6) In = [100 × (U − U0)/(Uc − U0)]%(3)
(§7) The results were expressed as mean ± standard deviation (SD) and analyzed with GraphPad Prism 8.0 software (CA, USA). The IC50 of PDQ was curve-fitted with the FORECAST function. Statistical significance was calculated using a two-tailed test, and a p value < 0.05 was considered as significant.

Series [2] deals with CYP2C9. The arrangement: method as in PMID 30078466. The settings on record: cited from earlier work.
For series [3], the target named is T2, hOAT3 (Homo sapiens, UniProt Q8TCC7).
T2 sequence (Q8TCC7 1-542): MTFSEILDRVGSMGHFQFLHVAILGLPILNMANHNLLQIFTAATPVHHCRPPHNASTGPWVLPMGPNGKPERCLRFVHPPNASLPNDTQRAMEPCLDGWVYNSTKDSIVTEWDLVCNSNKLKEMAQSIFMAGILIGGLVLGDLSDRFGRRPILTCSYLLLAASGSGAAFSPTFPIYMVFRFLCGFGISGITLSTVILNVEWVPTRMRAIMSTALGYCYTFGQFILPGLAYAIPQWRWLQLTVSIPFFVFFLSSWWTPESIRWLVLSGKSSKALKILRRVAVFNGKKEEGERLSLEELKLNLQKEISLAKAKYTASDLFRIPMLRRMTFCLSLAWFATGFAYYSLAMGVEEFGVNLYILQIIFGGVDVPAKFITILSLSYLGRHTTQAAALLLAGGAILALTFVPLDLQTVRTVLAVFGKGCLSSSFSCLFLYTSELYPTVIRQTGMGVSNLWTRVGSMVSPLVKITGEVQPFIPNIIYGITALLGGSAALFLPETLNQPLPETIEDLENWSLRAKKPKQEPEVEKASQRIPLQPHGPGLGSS
The series can be described thus: Substrates uptake assay, S2-OAT3 cells (3H-ES). It is filed as in vitro ADME. The settings on record: inhibitor 100 μM.
Source text: as §1, §2, §3, §4, §5, §6, §7

Series [4] deals with T3, hOATP1B3 (Homo sapiens, UniProt Q9NPD5).
T3 sequence (Q9NPD5 1-702): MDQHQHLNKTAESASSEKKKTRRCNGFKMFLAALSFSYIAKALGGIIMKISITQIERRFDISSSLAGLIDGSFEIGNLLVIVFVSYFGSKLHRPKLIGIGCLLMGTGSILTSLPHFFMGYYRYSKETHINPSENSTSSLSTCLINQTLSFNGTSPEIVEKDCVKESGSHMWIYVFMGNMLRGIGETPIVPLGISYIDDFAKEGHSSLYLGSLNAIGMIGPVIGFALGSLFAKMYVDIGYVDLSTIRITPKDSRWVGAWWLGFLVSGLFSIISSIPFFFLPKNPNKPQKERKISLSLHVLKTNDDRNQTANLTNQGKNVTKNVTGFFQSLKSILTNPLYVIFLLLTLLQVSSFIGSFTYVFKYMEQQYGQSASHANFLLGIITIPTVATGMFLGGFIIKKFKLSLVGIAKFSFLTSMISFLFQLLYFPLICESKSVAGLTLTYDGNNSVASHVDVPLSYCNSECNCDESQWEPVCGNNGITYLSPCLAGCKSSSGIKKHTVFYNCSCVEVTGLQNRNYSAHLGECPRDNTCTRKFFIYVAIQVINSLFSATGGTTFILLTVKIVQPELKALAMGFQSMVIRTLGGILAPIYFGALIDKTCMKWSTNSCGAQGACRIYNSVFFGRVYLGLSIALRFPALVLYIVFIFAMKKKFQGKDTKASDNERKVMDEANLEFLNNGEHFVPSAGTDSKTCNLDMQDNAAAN
The series is described as follows: Substrates uptake assay, HEK293A-OATP1B3 cells (3H-EG). It is filed as in vitro ADME. The settings on record: inhibitor 60 μM.
Source text: as §1, §2, §3, §4, §5, §6, §7

Series [5] has as its target T4, hOATP1B1 (Homo sapiens, UniProt Q9Y6L6).
T4 sequence (Q9Y6L6 1-691): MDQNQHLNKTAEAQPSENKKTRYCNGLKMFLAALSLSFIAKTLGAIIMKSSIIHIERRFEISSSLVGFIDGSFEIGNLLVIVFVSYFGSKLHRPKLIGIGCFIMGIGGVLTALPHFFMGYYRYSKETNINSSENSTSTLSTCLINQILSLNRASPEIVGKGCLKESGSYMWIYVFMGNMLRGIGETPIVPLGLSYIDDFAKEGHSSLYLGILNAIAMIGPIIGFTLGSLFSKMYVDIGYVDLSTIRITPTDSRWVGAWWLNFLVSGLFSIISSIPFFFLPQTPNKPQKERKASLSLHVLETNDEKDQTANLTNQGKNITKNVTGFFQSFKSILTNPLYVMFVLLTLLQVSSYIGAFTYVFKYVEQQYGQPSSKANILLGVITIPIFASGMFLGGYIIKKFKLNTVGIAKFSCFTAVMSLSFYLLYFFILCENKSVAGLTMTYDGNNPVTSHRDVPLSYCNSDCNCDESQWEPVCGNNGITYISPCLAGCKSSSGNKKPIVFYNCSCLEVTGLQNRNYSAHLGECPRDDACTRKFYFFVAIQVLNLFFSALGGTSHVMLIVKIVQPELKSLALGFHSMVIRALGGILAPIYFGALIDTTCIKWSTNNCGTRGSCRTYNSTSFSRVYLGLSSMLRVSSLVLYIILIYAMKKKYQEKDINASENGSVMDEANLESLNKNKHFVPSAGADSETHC
The series is described as follows: Substrates uptake assay, HEK293A-OATP1B1 cells (3H-ES). Type of series: in vitro ADME. The settings on record: inhibitor 60 μM.

Turning to `CN/C(=N/CCSCc1nc[nH]c1C)NC#N` [Cimetidine, reference compound], in series [1], the “DPM (14C-TEA uptake by OCT2)” value is recorded as 417.3±44.8 DPM.

Turning to `CC(C)=CCC[C@](C)(O[C@@H]1O[C@H](CO[C@@H]2O[C@H](CO)[C@@H](O)[C@H](O)[C@H]2O)[C@@H](O)[C@H](O)[C@H]1O)[C@H]1CC[C@]2(C)[C@@H]1[C@H](O)C[C@@H]1[C@@]3(C)CC[C@H](O[C@@H]4O[C@H](CO)[C@@H](O)[C@H](O)[C@H]4O[C@@H]4O[C@H](CO)[C@@H](O)[C@H](O)[C@H]4O)C(C)(C)[C@@H]3CC[C@]12C` [Ginsenoside Rb1], the IC50 in series [2] is 2400 nM.

For `CCCN(CCC)S(=O)(=O)c1ccc(C(=O)O)cc1` [Probenecid, reference compound], the “DPM (3H-ES uptake by OAT3)” value in series [3] is given as 1709.3±343.6 DPM.

As to `CO[C@H]1/C=C/O[C@@]2(C)Oc3c(C)c(O)c4c(O)c(c(/C=N/N5CCN(C)CC5)c(O)c4c3C2=O)NC(=O)/C(C)=C\C=C\[C@H](C)[C@H](O)[C@@H](C)[C@@H](O)[C@@H](C)[C@H](OC(C)=O)[C@@H]1C` [Rifampicin, reference compound], the “DPM (3H-EG uptake by OATP1B3)” value in series [4] turned out to be 769.0±126.5 DPM. Further, in series [5], the “DPM (3H-ES uptake by OATP1B1)” value worked out at 2798.7±891.8 DPM.
